Source: patent US20100234308A1, “WAKE-UP REMEDY” (Kyowa Hakko Kogyo Co., Ltd., priority 2006, published 2010)
Peptide text beside a SMILES is read from it.

Key:
[1] = cited from earlier work
[2] = cited from earlier work; remark: listed apart in the source
healthy person = test: Wake-up remedial effect of alanylglutamine on daily consumption (Test Examples 1 and 2); type: in vivo, human; conditions: continuously for 1 month
Excerpt: Test examples in which the wake-up remedial effect of alanylglutamine was examined are indicated below.

Row | SMILES | degradation in the body [1] | heat stability ([2]; compared to glutamine) | solubility in aqueous solutions ([2]; compared to glutamine) | awaking (healthy person; 0.5 g daily before going to bed) | awaking (healthy person; 1.5 g daily) | solubility [2]
1 | C[C@H](N)C(=O)N[C@@H](CCC(N)=O)C(=O)O [alanylglutamine] (H-Ala-Gln-OH) | immediately degraded into alanine and glutamine | superior | superior | improvement in awaking | improvement in awaking | –
2 | NC(=O)CC[C@H](N)C(=O)O [glutamine, reference compound] | – | – | – | – | – | low-solubility
